Reference: patent US9908877B2, “Imidazo[1,5-a]pyridinium ion fluorophores, and methods of making and using the same” (Indiana University Research and Technology Corporation, priority 2013, dated 2018)
Blank lines part the entries; values can stand above or below the molecule they belong to.

Key:
Format in all cases: physicochemical
[1] = Ultraviolet-visible light spectrum (maximum absorbance wavelength)
Protocol: Method for Obtaining an Ultraviolet-Visible Light Spectrum
Ultraviolet-visible (UV-Vis) Light spectra are obtained and recorded on an Agilent 8453 spectrophotometer using ChemStation software (Agilent Technologies, Inc., Santa Clara, Calif.).
(§1) The compounds were analyzed at 298° K according to the Method for Obtaining Ultraviolet-Visible Light Spectrum (30 μM acetonitrile) to obtain the maximum absorbance wavelength (λabs,max), Method for Obtaining Fluorescence Emission Spectrum (30 μM acetonitrile) to obtain the maximum emission wavelength (λem,max) and Method for Determining Quantum Yield (ΦF) (30 μM acetonitrile) at the concentration, in the solvent, and with the counter ion indicated in Table 1. The compounds included hydrogen at each R group that is not otherwise specified.
(§2) Compounds 6, 7, 9, 11-14 and 21 were analyzed according to: the Method for Obtaining Ultraviolet-Visible Light Spectrum to obtain the maximum absorbance wavelength (λabs,max), the Method for Obtaining Fluorescence Emission Spectrum to obtain the maximum emission wavelength (λem,max), and the Method for Determining Quantum Yield (ΦF) in the solvent and with the counter ion indicated in Table 3.

[2] = Fluorescence emission spectrum (maximum emission wavelength)
Protocol: Method for Obtaining a Fluorescence Emission Spectrum
Fluorescence emission spectra are obtained and recorded on a QM-4-CW Spectrofluorometer using FeliX32 software (Photon Technology International, Inc., Birmingham, N.J.).
as §1, §2

[3] = Fluorescence quantum yield, integrating sphere
Protocol: Method for Determining Quantum Yield
Quantum yield is determined using an integrating sphere attached to a QM-4-CW Spectrofluorometer using FeliX32 software (Photon Technology International).
as §1, §2

[4] = Fluorescence response to pH in buffered water; details: for fluorescence emission in water at pH 7.5: water pH 7.5
Protocol: Stock solutions of each compound (having a concentration of from 1-5 mM) were prepared by dissolving the corresponding salts of the compounds in methanol or 1V, N-dimethylformamide, and then diluting the same with acetonitrile or buffered water having a pH of from 2.5 to 7.5 derived from 0.2 M […] and 0.1 M citric acid, to achieve a sample solution having a compound concentration of 30.0 μM.
The emission spectrum for each sample was obtained. The results are illustrated by the plot in FIG. 2A.
The emission spectrum for each sample was obtained. […] The results are illustrated in the plot of FIG. 2B.
The fluorescence emission spectrum of Compound 8 in water having a pH of 2.5 was also obtained and is illustrated by the curved line with a peak at 360 nm in FIG. 5B.
Compounds 10, 11, and 12 were each individually added, at a concentration of 30 μM, to water having a pH=7.5 and the emission spectra of each were obtained. […] As the pH was decreased from 7.5 to 2.5 in 0.5 pH unit increments, fluorescence emission at 600 nm remained relatively nonexistent and the intensity of the fluorescence emission at 400 nm increased in correlation to the decrease in pH. FIG. 8A illustrates the emission properties of Compound 12.

[5] = Fluorescence response to pH in buffered water; details: 10 μM in water, pH = 7.5
[6] = pKa from fluorescence intensity versus pH; details: non-linear regression of fluorescence intensity versus pH, buffered water pH 2.5 to 7.5
Protocol: Method for Determining pKa
A pKa value is determined by plotting fluorescence intensity (Imax) at emission maxima against pH and fitting the result to the non-linear expression in equation (1) (i.e., eq.(1)). In eq (1), a and b are the molar coefficient of the acid (HA) and base (A^−) form, respectively, and c is the combined overall concentration of the acid and base form. i.e., c=[HA]+[A^−].

[7] = Fluorescence response to trifluoroacetic acid / DBU in acetonitrile
Protocol: A 30 μM solution of Compound 6 in acetonitrile was prepared by adding 99 μL of a stock solution of 3.04 mM Compound 6 in methanol to 10 mL of acetonitrile. An initial fluorescence emission spectrum of the solution was obtained and is illustrated by curve (i) in FIG. 1A.
A series of approximately 13.8 μL aliquots of trifluoroacetic acid (TFA) were then added to the 30 μM solution of Compound 6 until a total concentration of 60.0 mM of TFA was present in the solution. (The total amount of TFA present in the solution corresponded to 2000 equivalents of acid per equivalent of Compound 6.) The fluorescence emission spectrum of the resulting solution was obtained and is illustrated by curve (ii) in FIG. 1A.
A base, i.e., 1,8-diazabicyclo[5.4.0]undec-7-ene (DBU), was then added to the solution to neutralize the acid until a concentration of 90 mM DBU was obtained. The fluorescence emission spectrum of the resulting solution was obtained and is illustrated by curve (iii) in FIG. 1A. The fluorescence emission intensity at λem,max=565 nm increased as the amount of base present in the system increased and the fluorescence emission intensity at λem,max=405 nm decreased as the amount of base present in the system increased, which reflected Compound 6's ratiometric response to the changing base concentration in acetonitrile.
A 30 μM solution of Compound 7 in acetonitrile was prepared by adding 84 μL of a stock solution of 3.58 mM Compound 7 in methanol to 10 mL of acetonitrile. The emission spectrum of the solution was then obtained and is illustrated by curve (i) in FIG. 1B.
A series of approximately 13.8 μL aliquots of TFA were then added to the 30 μM solution of Compound 7 until a total concentration of 60.0 mM TFA was present in the solution (which corresponded to 2000 equivalents of acid per equivalent of Compound 7). The fluorescence emission spectrum of the solution was obtained and is illustrated by curve (ii) in FIG. 1B.
After the 60 mM TFA concentration was achieved, DBU was gradually added to the solution until a total concentration of 90 mM DBU was present in the solution. The fluorescence spectrum of the solution was obtained and is illustrated by curve (iii) in FIG. 1B.
An aliquot of 50 μL of trifluoroacetic acid was then added to the system, and the fluorescence emission spectrum was obtained and is illustrated by the curved line with a peak at 360 nm in FIG. 6A.
Compound 10 was placed in neat acetonitrile and its emission spectrum was monitored as trifluoroacetic acid was added to the acetonitrile in incremental amounts to achieve a solution that included an acid concentration ranging from 0 to 0.2 M. After each acid addition the sample was excited with radiation of a wavelength 340 nm, and its fluorescence emission spectrum was monitored. The results are illustrated in FIG. 7A.
The solution of Compound 10 in acetonitrile was titrated with trifluoroacetic acid (TFA). […] The first stage, which occurred with the addition of the initial aliquots of TFA, was a slight increase intensity at 580 nm, as illustrated in FIG. 7A. As more TFA was added to the system, a second transition occurred in which the emission at 580 nm began to decrease and as the emission at 400 nm began to increase, as illustrated in FIG. 7B. A plot of the emission intensity at 580 nm versus pH and at 400 nm versus pH is illustrated in FIG. 7C.
Compounds 10, 11, and 12 were then each individually added, at a concentration of 30 μM, to acetonitrile and the emission spectrum of each was monitored. The compounds emitted at 600 nm with an intensity of about 7.57×10^5 arbitrary units (a.u.) in neat acetonitrile. […] FIG. 8B illustrates the emission properties of Compound 12.

[8] = Fluorescence response to hydrophobic environment (acetonitrile in water, SDS)
Protocol: Compound 12 was placed in water and the intensity of its fluorescence emission at 600 nm was monitored as the concentration of acetonitrile was increased from 0 volume to volume (v/v) % to 100 v/v % in increments of 10 v/v %.
Compound 12 was added to an aqueous solution of sodium dodecylsulfate (SDS) and monitored for fluorescence emission at 600 nm.

[9] = 30 μM acetonitrile, 298 K, Table 1

SMILES: CCN(CC)c1ccc(-n2cc3cccc[n+]3c2)cc1 [Compound 2, 2-(4-(diethylamino)phenyl)-2H-imidazo[1,5-a]pyridin-4-ium hexafluorophosphate]
λabs, max Abs [1, 9]: 330 nm | λem, max Em [2, 9]: 515 nm | ΦF (quantum yield) [3, 9]: 30% | fluorescence λem ([4]; Example 13B: pH decreased to 2.5): 360-375 nm | emission maxima λem ([4]; Example 13B: printed 'neat acetonitrile having a pH of 7.5' / 'pH=7.5 in water'): 550 nm | fluorescence λem ([4]; water, pH 2.5): 360-375 nm | emission maxima λem [5]: 550 nm

λabs, max Abs ([1]; H2O pH = 2.5, 30 μM): 340 nm | λabs, max Abs ([1]; H2O pH = 7.5, 30 μM): 340 nm | λabs, max Abs ([1]; MeCN + 13.8 uL TFA, 30 μM): 340 nm | λabs, max Abs ([1]; MeCN, 30 μM): 340 nm | λem, max Em ([2]; H2O pH = 2.5, 30 μM): 450 nm | λem, max Em ([2]; MeCN + 13.8 uL TFA, 30 μM): 450 nm | ΦF (quantum yield) ([3]; 30 μM in acetonitrile with 60.0 mM TFA): 42% | quantum yield (ΦF) ([3]; 30 μM in acetonitrile, no acid, excited at 340 nm): 0.06% | […]F (quantum yield) ([3]; H2O pH = 2.5, 30 μM): 42% | […]F (quantum yield) ([3]; H2O pH = 7.5, 30 μM): 0% | […]F (quantum yield) ([3]; MeCN + 13.8 uL TFA, 30 μM): 57% | […]F (quantum yield) ([3]; MeCN, 30 μM): 0% | pKa [6]: 4.4 | increase in cyan fluorescent intensity ([7]; 30 μM in acetonitrile after addition of 60.0 mM TFA): approximately 700 fold | λem,max (fluorescence emission) ([7]; 30 μM in acetonitrile in the presence of trifluoroacetic acid (60.0 mM TFA)): 450 nm | fluorescence emission in neat acetonitrile ([7]; acetonitrile without acid): essentially non-emissive | fluorescence intensity after base ([7]; acetonitrile, 60 mM TFA then 90 mM DBU): returned to zero | λem,max of the emission that increases as pH decreases ([4]; buffered water, 298 K, pH from 7.5 to 2.5): 450 nm | fluorescence emission in water at pH 7.5 [4]: essentially non-emissive
SMILES: CCN(CC)c1ccc(-n2c[n+]3ccccc3c2-c2ccc(OC)cc2)cc1.[Cl-] [Compound 7, 2-(4-(diethylamino)phenyl)-1-(4-methoxyphenyl)-2H-imidazo[1,5-a]pyridin-4-ium chloride]

λabs, max Abs ([1]; H2O pH = 2.2, 30 μM): 340 nm | λabs, max Abs ([1]; H2O pH = 7.5, 30 μM): 340 nm | λabs, max Abs ([1]; MeCN + 50 μL TFA, 30 μM): 340 nm | λabs, max Abs ([1]; MeCN, 30 μM): 340 nm | λem, max Em ([2]; H2O pH = 2.2, 30 μM): 400 nm | λem, max Em ([2]; MeCN + 50 μL TFA, 30 μM): 400 nm | λem, max Em ([2]; MeCN, 30 μM): 600 nm | […]F (quantum yield) ([3]; H2O pH = 2.2, 30 μM): 66% | […]F (quantum yield) ([3]; H2O pH = 7.5, 30 μM): 0% | […]F (quantum yield) ([3]; MeCN + 50 μL TFA, 30 μM): 57% | […]F (quantum yield) ([3]; MeCN, 30 μM): 30% | emission intensity at 400 nm ([7]; 30 μM in acetonitrile + 50 μL trifluoroacetic acid): 1.34×10^6 a.u. | emission intensity at 600 nm ([7]; 30 μM in neat acetonitrile): about 7.57×10^5 arbitrary units (a.u.) | emission wavelength ([7]; 30 μM in neat acetonitrile): 600 nm | emission wavelength λem,max ([7]; acetonitrile + 50 μL trifluoroacetic acid): 400 nm | fluorescence emission in water at pH 7.5 [4]: essentially no fluorescence emission | fluorescence intensity at 600 nm ([8]; 100 v/v % acetonitrile): 6.48×10^5 a.u. | fluorescence intensity at 600 nm ([8]; water, 0 v/v % acetonitrile): 7.81×10^3 a.u.
SMILES: CCN(CC)c1ccc(-n2cc3cccc(-c4cn(-c5ccc(C)cc5)nn4)[n+]3c2)cc1.[Cl-] [Compound 12, 2-(4-(diethylamino)phenyl)-5-(1-(p-tolyl)-1H-1,2,3-triazol-4-yl)-2H-imidazo[1,5-a]pyridin-4-ium chloride]
